Data published in patent US20050019267A1, “Macromolecular imaging agents for liver imaging” (priority 2001, published 2005).

Key:
[1] = in vivo; cited from earlier work
[2] = system: LS174T intrahepatic micro-metastases; format: in vivo
[3] = 0.03 mmolGd/kg DAB-Am64-(1B4M-Gd)64 or 0.1 mmolGd/kg dimeglumine-DTPA-Gd, dynamic MRI 0-25 min

| Compound | excreted via the liver [1] | MRI signal intensity for blood vessels (portal and hepatic veins) [2, 3] | MRI signal intensity in the tumors [2, 3] | MRI signal intensity in the liver ([2]; 0.03 mmolGd/kg DAB-Am64-(1B4M-Gd)64 or 0.1 mmolGd/kg dimeglumine-DTPA-Gd, dynamic MRI 0-25 min, comparator worded relative to DAB agent) | liver-to-tumor image intensity ratio ([2]; 0.1 mmolGd/kg dimeglumine-DTPA-Gd versus 0.03 mmolGd/kg DAB-Am64-(1B4M-Gd)64, all time points) | tumors with more than 2 mm diameter detected by MRI (of 18) ([2]; same mice, n=5, 1-day interval, 0.03 mmolGd/kg DAB agent, 0.1 mmolGd/kg dimeglumine-DTPA-Gd) |
| --- | --- | --- | --- | --- | --- | --- |
| CNC[C@H](O)[C@@H](O)[C@H](O)[C@H](O)CO.CNC[C@H](O)[C@@H](O)[C@H](O)[C@H](O)CO.O=C([O-])CN(CCN(CC(=O)[O-])CC(=O)O)CCN(CC(=O)O)C(COCc1ccccc1)C(=O)[O-].[Gd+3] (stereo not shown) [MultiHance, [Gd(BOPTA)(H2O)]^2−] | 2-4% | – | – | – | – | – |
| CCOc1ccc(CC(CN(CCN(CC(=O)[O-])CC(=O)[O-])CC(=O)[O-])N(CC(=O)[O-])CC(=O)[O-])cc1.[Gd+3].[Na+].[Na+] (stereo not shown) [Eovist, [Gd(EOB-DTPA)(H2O)]^2−] | roughly 50% | – | – | – | – | – |
| CNC[C@H](O)[C@@H](O)[C@H](O)[C@H](O)CO.CNC[C@H](O)[C@@H](O)[C@H](O)[C@H](O)CO.O=C([O-])CN(CCN(CC(=O)[O-])CC(=O)O)CCN(CC(=O)[O-])CC(=O)O.[Gd+3] [dimeglumine-DTPA-Gd] | – | much lower | comparable | much lower | significantly less | 18 |
